Data taken from ChEMBL document CHEMBL3286288, “Diterpenes from the endangered goldenrod Solidago shortii” (2014).
Calls of active or inactive are those of the source. No cut-off for these calls is given here.

Assays:
Staphylococcus aureus [1] = test: Antibacterial activity against methicillin-susceptible Staphylococcus aureus ATCC 25923 assessed as growth inhibition at 64 ug/ml after 24 hrs by broth microdilution method; assay type: functional, organism-based
Staphylococcus aureus [2] = test: Antibacterial activity against methicillin-resistant Staphylococcus aureus 108 assessed as growth inhibition up to 16 ug/ml after 24 hrs by broth microdilution method; assay type: functional, organism-based
NCI-H460 = test: Growth inhibition of human NCI-H460 cells after 72 hrs at 10 uM; assay type: functional, cell-based
Staphylococcus aureus [3] = test: Antibacterial activity against methicillin-susceptible Staphylococcus aureus ATCC 25923 assessed as growth inhibition at 8 ug/ml after 24 hrs by broth microdilution method relative to control; assay type: functional; conditions: ATCC 25923, 24 h, read-out: GI

| SMILES | growth inhibition (GI) (Staphylococcus aureus [1]) | growth inhibition (GI) (Staphylococcus aureus [2]) | growth inhibition (GI) (NCI-H460) | inhibition of growth at 8 µg/mL (Staphylococcus aureus [3]) |
| --- | --- | --- | --- | --- |
| C/C=C(/C)C(=O)O[C@H]1C[C@]2(C)[C@@H](CC[C@H]3O[C@]32C)[C@](C)(CCC2=CC(=O)OC2)[C@@H]1C | inactive | inactive | inactive | – |
| C/C=C(/C)C(=O)O[C@H]1C[C@]2(C)[C@@H](CC[C@@H](NC(C)=O)[C@]2(C)O)[C@](C)(CCC2=CC(=O)OC2)[C@@H]1C | – | inactive | inactive | – |
| C[C@@H]1C[C@H]2C(=O)C(C)(C)[C@@H](O)CC[C@]2(O)[C@]1(C)CCC1=CC(=O)OC1 | – | inactive | inactive | 66% |
| C/C=C(/C)C(=O)O[C@H]1C[C@]2(C)[C@@H](CC[C@@H](OC(=O)C(F)(F)F)[C@]2(C)O)[C@](C)(CCC2=CC(=O)OC2)[C@@H]1C | – | inactive | inactive | – |
| C/C=C(/C)C(=O)O[C@H]1C[C@]2(C)[C@@H](CC[C@@H](O)[C@]2(C)O)[C@](C)(CCC2=CC(=O)OC2)[C@@H]1C | – | inactive | inactive | – |
| C[C@@H]1CC[C@]2(O)[C@H](C[C@H](O)C2(C)C)C(=O)[C@]1(C)CCC1=CC(=O)OC1 | – | inactive | inactive | 56% |
